# “Also recorded” adds a separate entry of the source.
# B1: isopentenyl phosphate kinase (IPK) (Thermoplasma acidophilum DSM 1728) (protein)
# chain: MMILKIGGSVITDKSAYRTARTYAIRSIVKVLSGIEDLVCVVHGGGSFGHIKAMEFGLPGPKNPRSSIGYSIVHRDMENLDLMVIDAMIEMGMRPISVPISALRYDGRFDYTPLIRYIDAGFVPVSYGDVYIKDEHSYGIYSGDDIMADMAELLKPDVAVFLTDVDGIYSKDPKRNPDAVLLRDIDTNITFDRVQNDVTGGIGKKFESMVKMKSSVKNGVYLINGNHPERIGDIGKESFIGTVIR
# What was measured:
# [1] = biological target: T1, isopentenyl phosphate kinase (IPK) (Thermoplasma acidophilum, UniProt Q9HLX1); format: biochemical; details: overnight reaction
# T1 sequence (Q9HLX1 1-245): B1 chain
# Procedure: Since the substrate scope of IPK has yet to be fully described, here IPK was tested against a wider panel of substrates. The IPK gene from T. acidophilum was codon optimized and subcloned into pET28a. Following expression in E. coli BL21 DE3, the enzyme was purified via metal-chelation affinity chromatography. Next, the substrate specificity of the enzyme was determined in vitro using a panel of synthesized alcohol monophosphates using low resolution mass spectrometry (FIG. 25). The availability of alcohol diphosphate byproducts (FIG. 23) conveniently served as product standards.
# Assay for Initial Activity of Monophosphates with IPK. Fractions from the synthesis of the diphosphates on a 400 μmol scale containing the monophosphates were concentrated in vacuo and resuspended to 5 mg/mL in water. Enzymatic reaction mixtures contained 50 mM Tris (pH 8.0), 2.5 mM MgCl2, 0.05 mM DTT, 1 mM ATP, and 4.2 μg of enzyme in a 200 μL reaction with 40 μL of substrate (1 mg/mL final). A reaction mixture without enzyme was setup as a control. Reactions were incubated overnight at 37° C. and checked by low-resolution LC-MS for diphosphate product formation. Standards from the isolated diphosphates were used to confirm retention time and mass. Reactions with a >10% diphosphate generation as compared to the no enzyme control were selected for kinetic experiments. LC-MS experiments were conducted using a Shimadzu LC-MS 2020 single quadrupole instrument with a Phenomenex Kinetex UPLC C18 column (2.1×50 mm, […], 100 Å pores) column. 5 μL was injected onto and separated using a series of linear gradients developed from 0.1% formic acid in H2O (A) to 0.1% formic acid in acetonitrile (B) at 0.2 mL/min using the following protocol: 0-2.2 min, 95-1% A; 2.21-2.6 min, 1% A; 2.61-2.62 min, 1-95% A; 2.63-3.5 min, 95% A. Products of enzymatic reactions were verified by mass and comparison with diphosphate standards previously synthesized.
# [2] = system: lycopene production via the DXP pathway; assay: Lycopene colorimetric reporter assay; format: cell-based; details: Fs 0.5 μM; E. coli BL21Tuner(DE3) lycopene reporter strain expressing IPK
# [3] = biological target: T1, isopentenyl phosphate kinase (IPK); assay: NADH-coupled kinetic assay of IPK; details: for kcat fold higher than that with IP: relative to natural substrate IP
# Procedure: (§1) The data was fitted to the Michaelis-Menten equation using SigmaPlot, and the kinetic parameters (kcat, Km, kcat/Km) extracted.
# (§2) NADH-Coupled Kinetic Assays. NADH coupled assays were performed with purified enzymes. Reaction progress was monitored by absorbance at 340 nm at 30° C. in a 96-well plate using a Biotek Synergy 4 plate reader (Winooski, Vt.). 200 μL enzymatic mixtures contained 50 mM Tris (pH 8.0), 25 mM KCl, 2.5 mM MgCl2, 0.05 mM DTT, 1 mM ATP, 320 μM NADH, 400 μM phosphoenolpyruvate, 0.5 U pyruvate kinase, 0.7 U lactate dehydrogenase, and various amounts of substrate. Conditions were verified by doubling enzyme and verifying the initial rate was doubled as well.
# (§3) Kinetics of IPK were done with purified enzyme using 0.09 μg of enzyme per well. Serial dilution was used to generate specific concentrations of substrates (3125, 1562, 781, 625, 391, 195, 98, 24, 12, and 3 μM). Each condition was performed in triplicate. Nonlinear regression was fitted using SigmaPlot (Systat Software Inc., San Jose, Calif., USA).
# PhoN = assay: Substrate specificity of wild-type PhoN, HR-LCMS; format: biochemical, Shigella flexneri; details: alcohol 100 mM, PhoN 20 μg/mL, ATP 50 mM
# Procedure: Broad substrate specificity of wild-type PhoN. Each commercially available alcohol (100 mM) was tested for activity with purified PhoN (20 μg/mL) and ATP (50 mM). The product mixtures were analyzed by high resolution liquid chromatography mass spectrometry (HR-LCMS) to quantify the conversion of alcohol to mono-phosphate. Quantification was achieved by the addition of an internal standard (either geranyl phosphate or cinnamyl monophosphate) at known fixed concentration. The results are illustrated in FIG. 54 and FIG. 55.
# CpaD I329G = CpaD I329G (Aspergillus oryzae, UniProt F5HN73, I329G); assay: Substrate specificity of prenyltransferase mutant CpaD I329G in vitro; format: biochemical; details: pyrophosphate 2 mM, cyclic dipeptide 1 mM, enzyme 1 mg/mL
# Chain of CpaD I329G (F5HN73 whole entry I329G): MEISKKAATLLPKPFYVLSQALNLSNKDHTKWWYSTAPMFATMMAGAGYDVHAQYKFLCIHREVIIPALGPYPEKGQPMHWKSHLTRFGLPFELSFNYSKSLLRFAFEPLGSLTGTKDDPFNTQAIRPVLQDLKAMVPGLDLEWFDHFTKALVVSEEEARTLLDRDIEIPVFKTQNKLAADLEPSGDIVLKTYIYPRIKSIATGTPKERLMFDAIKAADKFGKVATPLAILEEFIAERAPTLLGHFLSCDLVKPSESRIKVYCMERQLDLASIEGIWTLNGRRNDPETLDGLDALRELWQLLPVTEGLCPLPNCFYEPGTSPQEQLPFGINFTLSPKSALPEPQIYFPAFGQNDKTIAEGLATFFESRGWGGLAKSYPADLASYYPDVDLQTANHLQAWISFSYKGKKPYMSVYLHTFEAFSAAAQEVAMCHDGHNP
# From the text: Altered substrate specificity of the prenyltransferase mutant CpaD 1329G in vitro. […] The results are illustrated in FIG. 62 and FIG. 63.
# FtmPT1 M364G = FtmPT1 M364G (Aspergillus fumigatus, UniProt Q4WAW7, M364G); details: pyrophosphate 2 mM, cyclic dipeptide 1 mM
# Chain of FtmPT1 M364G (Q4WAW7 whole entry M364G): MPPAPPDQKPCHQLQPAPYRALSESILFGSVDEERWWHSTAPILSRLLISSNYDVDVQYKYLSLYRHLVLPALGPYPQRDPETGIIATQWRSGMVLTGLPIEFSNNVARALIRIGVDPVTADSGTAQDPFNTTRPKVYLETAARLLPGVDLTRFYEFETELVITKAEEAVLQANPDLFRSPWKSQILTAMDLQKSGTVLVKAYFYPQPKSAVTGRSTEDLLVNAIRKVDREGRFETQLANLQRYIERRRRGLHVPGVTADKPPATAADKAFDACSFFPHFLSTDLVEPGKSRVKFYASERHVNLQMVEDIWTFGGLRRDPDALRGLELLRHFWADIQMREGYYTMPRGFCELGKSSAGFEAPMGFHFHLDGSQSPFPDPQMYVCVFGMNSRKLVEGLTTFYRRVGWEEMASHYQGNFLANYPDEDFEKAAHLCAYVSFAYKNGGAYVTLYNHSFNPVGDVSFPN
# Procedure: Each chemically synthesized pyrophosphate (2 mM) and cyclic dipeptide (1 mM) were tested for activity with purified FtmPT1 (100 mg/mL). […] The substrate (cyclic dipeptide) and product peak areas were determined by HPLC at a detection wavelength of 254 nm, and the conversion was calculated.
# FgaPT2 M328G = FgaPT2 M328G (Aspergillus fumigatus, UniProt Q50EL0, M328G); assay: Substrate specificity of FgaPT2 mutant M328G in vitro; format: biochemical; details: pyrophosphate 3 mM, enzyme 350 μg/mL, Trp 1 mM
# Chain of FgaPT2 M328G (Q50EL0 whole entry M328G): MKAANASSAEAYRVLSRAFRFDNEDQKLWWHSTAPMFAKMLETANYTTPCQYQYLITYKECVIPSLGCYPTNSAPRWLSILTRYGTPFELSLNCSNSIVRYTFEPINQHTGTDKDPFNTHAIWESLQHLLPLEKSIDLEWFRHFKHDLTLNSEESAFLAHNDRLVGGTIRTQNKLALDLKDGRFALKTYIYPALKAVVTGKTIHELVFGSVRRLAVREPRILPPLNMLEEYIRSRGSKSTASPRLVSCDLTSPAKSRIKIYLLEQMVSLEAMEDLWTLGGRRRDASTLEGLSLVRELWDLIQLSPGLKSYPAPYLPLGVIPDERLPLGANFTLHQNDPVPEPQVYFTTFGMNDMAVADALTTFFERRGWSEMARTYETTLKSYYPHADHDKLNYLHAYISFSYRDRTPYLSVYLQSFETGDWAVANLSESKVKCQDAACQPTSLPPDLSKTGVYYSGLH
# Procedure: Altered substrate specificity of the prenyltransferase FgaPT2 mutant M328G in vitro. Each chemically synthesized pyrophosphate (3 mM) was tested for activity with purified FgaPT2 M328 (350 μg/mL) and Trp (1 mM). […] The results are illustrated in FIG. 58 and FIG. 59.
# FtmPT1 = FtmPT1 (Aspergillus fumigatus, UniProt Q4WAW7); format: biochemical; details: pyrophosphate 2 mM, cyclic dipeptide 1 mM
# Chain of FtmPT1 (Q4WAW7 whole entry): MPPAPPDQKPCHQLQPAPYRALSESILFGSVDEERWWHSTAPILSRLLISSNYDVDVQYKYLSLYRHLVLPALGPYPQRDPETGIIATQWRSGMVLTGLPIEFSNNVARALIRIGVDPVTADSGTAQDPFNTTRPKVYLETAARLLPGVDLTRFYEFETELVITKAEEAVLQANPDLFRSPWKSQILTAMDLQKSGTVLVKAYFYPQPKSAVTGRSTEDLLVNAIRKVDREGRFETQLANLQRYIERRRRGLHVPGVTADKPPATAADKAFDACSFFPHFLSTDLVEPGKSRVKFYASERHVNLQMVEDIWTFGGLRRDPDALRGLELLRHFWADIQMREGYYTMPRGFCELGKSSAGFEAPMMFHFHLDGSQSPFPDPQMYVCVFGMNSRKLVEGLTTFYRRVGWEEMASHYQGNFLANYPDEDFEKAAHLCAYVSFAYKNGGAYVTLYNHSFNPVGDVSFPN
# CpaD = CpaD (Aspergillus oryzae, UniProt F5HN73); assay: Substrate specificity of prenyltransferase CpaD in vitro; format: biochemical; details: pyrophosphate 0.3 mM, cyclic dipeptide 0.25 mM, CpaD 1 mg/mL
# Chain of CpaD (F5HN73 whole entry, species assumed): as the sequence (F5HN73 whole entry I329G) above, with G329I counted along it
# Procedure: Broad substrate specificity of the prenyltransferase CpaD in vitro. Each chemically synthesized pyrophosphate (0.3 mM) and cyclic dipeptide (0.25 mM) were tested for activity with purified CpaD (1 mg/mL). […] The results are illustrated in FIG. 60 and FIG. 61.
# FgaPT2 = FgaPT2 (Aspergillus fumigatus, UniProt Q50EL0); assay: Substrate specificity of wild-type prenyltransferase FgaPT2 in vitro; format: biochemical; details: pyrophosphate 3 mM, FgaPT2 200 μg/mL, Trp 1 mM
# Chain of FgaPT2 (Q50EL0 whole entry): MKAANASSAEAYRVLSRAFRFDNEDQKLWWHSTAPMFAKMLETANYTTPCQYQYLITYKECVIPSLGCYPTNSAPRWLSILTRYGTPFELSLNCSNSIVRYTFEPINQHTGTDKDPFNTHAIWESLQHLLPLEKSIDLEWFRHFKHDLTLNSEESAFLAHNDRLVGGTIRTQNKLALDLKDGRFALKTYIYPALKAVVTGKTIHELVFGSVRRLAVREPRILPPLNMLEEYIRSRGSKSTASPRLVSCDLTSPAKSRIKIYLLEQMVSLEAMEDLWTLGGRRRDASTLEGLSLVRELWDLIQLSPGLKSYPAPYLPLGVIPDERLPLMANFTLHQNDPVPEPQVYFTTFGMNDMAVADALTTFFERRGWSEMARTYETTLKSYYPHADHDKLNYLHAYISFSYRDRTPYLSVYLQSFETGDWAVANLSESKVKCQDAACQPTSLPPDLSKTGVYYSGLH
# Procedure: Broad substrate specificity of the wild-type prenyltransferase FgaPT2 in vitro. Each chemically synthesized pyrophosphate (3 mM) was tested for activity with purified FgaPT2 (200 μg/mL) and Trp (1 mM). The product mixtures were analyzed by HR-LCMS to identify the mass ions consistent with the expected alkylated product. The substrate (Trp) and product peak areas were determined by high performance liquid chromatography (HPLC) at a detection wavelength of 269 nm, and the conversion was calculated. The results are illustrated in FIG. 56 and FIG. 57.
# [4] = biological target: IspA, a farnesyl diphosphate synthase (FPPase) (Escherichia coli, UniProt P22939); details: wild-type IspA, DMAPP as starter unit
# Chain of IspA, a farnesyl diphosphate synthase (FPPase) (P22939 whole entry): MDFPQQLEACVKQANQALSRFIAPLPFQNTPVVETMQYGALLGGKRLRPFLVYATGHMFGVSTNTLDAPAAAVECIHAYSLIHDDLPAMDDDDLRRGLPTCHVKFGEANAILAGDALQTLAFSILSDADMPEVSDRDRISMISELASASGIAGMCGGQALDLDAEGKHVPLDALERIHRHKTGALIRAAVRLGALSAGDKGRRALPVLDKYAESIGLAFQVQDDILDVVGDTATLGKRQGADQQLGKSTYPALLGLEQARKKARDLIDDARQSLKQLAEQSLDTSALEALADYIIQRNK
# [5] = substrate: C=C(C)CCOP(=O)(O)O; assay: purified protein, by the assay type; details: other: IPK with monophosphorylated substrate, ± SD of the mean, 1 mM ATP, 30° C., pH 8.0
# Procedure: as §1, §2, §3
# [6] = substrate: CC(C)=CCOP(=O)(O)O; assay: purified protein, by the assay type; details: other: IPK with monophosphorylated substrate, ± SD of the mean, 1 mM ATP, 30° C., pH 8.0
# Procedure: as §1, §2, §3
molecule,measurement,setting,value
"CC(C)=CCC/C(C)=C\CC/C(C)=C\COP(=O)(O)O [FP, farnesyl monophosphate]","phosphorylation by IPK to the corresponding pyrophosphate, as judged by MS",[1],did not result in detection of the corresponding pyrophosphate
"O=CN(O)CCCP(=O)(O)O [Fs, fosmidomycin]",lycopene production,[2],almost completely inhibited lycopene production
"CC(C)=CCC/C(C)=C/COP(=O)(O)O [GP, geranyl monophosphate]","phosphorylation by IPK to the corresponding pyrophosphate, as judged by MS",[1],did not result in detection of the corresponding pyrophosphate
"CC(C)=CCC/C(C)=C\COP(=O)(O)O [NP, neryl monophosphate]","phosphorylation by IPK to the corresponding pyrophosphate, as judged by MS",[1],did not result in detection of the corresponding pyrophosphate
C=CCCOP(=O)(O)O [Substrate 1],kcat fold higher than that with IP,[3],4.25 fold
same,PhoN-catalyzed phosphorylation of alcohol: expected product detected,PhoN,mass ions were detected by HR-LCMS consistent with the expected product
same,CpaD I329G-catalyzed alkylation of cyclic dipeptide: expected product detected,CpaD I329G,products detected by HPLC and confirmed by LR-LCMS
same,FtmPT1 M364G-catalyzed alkylation of cyclic dipeptide: expected product detected,FtmPT1 M364G,products detected by HPLC and confirmed by LR-LCMS
same,FgaPT2 M328G-catalyzed alkylation of Trp: expected product detected,FgaPT2 M328G,products detected by HPLC and confirmed by LR-LCMS
C=CCC(C)OP(=O)(O)O (stereo not shown) [Substrate 2],use as IPK substrate,[3],detectable but kinetically irrelevant
same,PhoN-catalyzed phosphorylation of alcohol: expected product detected,PhoN,mass ions were detected by HR-LCMS consistent with the expected product
same,FtmPT1-catalyzed alkylation of cyclic dipeptide: expected product detected,FtmPT1,products detected by HPLC and confirmed by LR-LCMS
same,CpaD-catalyzed alkylation of cyclic dipeptide: expected product detected,CpaD,products detected by HPLC and confirmed by LR-LCMS
C=C(Br)CCOP(=O)(O)O [Substrate 3],kcat fold higher than that with IP,[3],5.1 fold
same,PhoN-catalyzed phosphorylation of alcohol: expected product detected,PhoN,mass ions were detected by HR-LCMS consistent with the expected product
same,CpaD I329G-catalyzed alkylation of cyclic dipeptide: expected product detected,CpaD I329G,products detected by HPLC and confirmed by LR-LCMS
same,FtmPT1 M364G-catalyzed alkylation of cyclic dipeptide: expected product detected,FtmPT1 M364G,products detected by HPLC and confirmed by LR-LCMS
same,FgaPT2 M328G-catalyzed alkylation of Trp: expected product detected,FgaPT2 M328G,products detected by HPLC and confirmed by LR-LCMS
C#CCCCOP(=O)(O)O [Substrate 4],PhoN-catalyzed phosphorylation of alcohol: expected product detected,PhoN,mass ions were detected by HR-LCMS consistent with the expected product
same,CpaD I329G-catalyzed alkylation of cyclic dipeptide: expected product detected,CpaD I329G,products detected by HPLC and confirmed by LR-LCMS
same,FtmPT1 M364G-catalyzed alkylation of cyclic dipeptide: expected product detected,FtmPT1 M364G,products detected by HPLC and confirmed by LR-LCMS
same,FgaPT2 M328G-catalyzed alkylation of Trp: expected product detected,FgaPT2 M328G,products detected by HPLC and confirmed by LR-LCMS
C=C(C)COP(=O)(O)O [Substrate 5],PhoN-catalyzed phosphorylation of alcohol: expected product detected,PhoN,mass ions were detected by HR-LCMS consistent with the expected product
C=CCCCOP(=O)(O)O [Substrate 6],fold drop in kcat/Km,[3]; between 1 and 6,3 fold
same,FgaPT2-catalyzed alkylation of Trp: expected product detected,FgaPT2,mass ions were detected by HR-LCMS consistent with the expected product
CCC/C=C\COP(=O)(O)O [Substrate 7],FgaPT2-catalyzed alkylation of Trp: expected product detected,FgaPT2,mass ions were detected by HR-LCMS consistent with the expected product
CCC/C=C/COP(=O)(O)O [Substrate 8],fold decrease in kcat/Km,[3]; π-bond geometry of 7 switched from Z to E in 8,17 fold
same,FgaPT2-catalyzed alkylation of Trp: expected product detected,FgaPT2,mass ions were detected by HR-LCMS consistent with the expected product
C#CCCOP(=O)(O)O [Substrate 9],PhoN-catalyzed phosphorylation of alcohol: expected product detected,PhoN,mass ions were detected by HR-LCMS consistent with the expected product
C=CCC(C)OP(=O)(O)OP(=O)(O)O (stereo not shown) [Substrate 19],FgaPT2-catalyzed alkylation of Trp: expected product detected,FgaPT2,mass ions were detected by HR-LCMS consistent with the expected product
same,PhoN-catalyzed phosphorylation of alcohol: expected product detected,PhoN,mass ions were detected by HR-LCMS consistent with the expected product
same,FtmPT1-catalyzed alkylation of cyclic dipeptide: expected product detected,FtmPT1,products detected by HPLC and confirmed by LR-LCMS
same,CpaD-catalyzed alkylation of cyclic dipeptide: expected product detected,CpaD,products detected by HPLC and confirmed by LR-LCMS
C=CCCCOP(=O)(O)O [Substrate 27],kcat,"[3]; IPK with monophosphorylated substrate, ± SD of the mean",93.1 ± 2.67 s⁻¹
same,Km,"[3]; IPK with monophosphorylated substrate, ± SD of the mean, 1 mM ATP, 30° C.",848 ± 57.9 µM
same,"use as extender unit in place of IPP (GPP analogue by LC-MS), words",[4],not utilized by IspA; also recorded: did not facilitate carbon-carbon bond formation; also recorded: did not serve as an extender unit
O=P(O)(O)OP(=O)(O)OCc1cccnc1 [Substrate 32],"use as extender unit in place of IPP (GPP analogue by LC-MS), words",[4],did not serve as an extender unit
B1,Km,[5],27.9 ± 4.37 µM
same,kcat,[5],43.9 ± 1.1 s⁻¹
same,kcat/Km,[5],1.5e+06 M⁻¹ s⁻¹
same,Km,[6],134 ± 38.2 µM
same,kcat,[6],32.7 ± 2.05 s⁻¹
same,kcat/Km,[6],230000 M⁻¹ s⁻¹

# Source: patent publication US20220162188A1, “ISOPRENOIDS AND METHODS OF MAKING THEREOF” (NORTH CAROLINA STATE UNIVERSITY, priority 2019, published 2022)
